Test results reported in US11471462B2, “Compositions and methods for detecting and treating diabetes” (THE BROAD INSTITUTE, INC., priority 2016, dated 2022).
Like-named read-outs stand apart in the source and are kept apart here.

Test system: SLC16A11
Test: Compound treatment, SLC16A11 expression by ddPCR in SNU761 cells
Assay type: cell-based, human
Method: A small number of the compounds that made the strongest positive connections to the SLC16A11 gene expression signature were selected and tested. […] Methotrexate was also included, which had been annotated as a dihydrofolate reductase inhibitor. SNU761 cells (derived from a human hepatocellular carcinoma) and NCIH716 cells (derived from a human cecum adenocarcinoma), which both express SLC16A11, were treated with the compounds. The same compound concentrations and treatment times were used as in the LINCS dataset experiments. […] For normalization, a different housekeeper gene, HPRT1, was used and obtained similar results with the mTOR inhibitors (FIGS. 14A and 14B).
From the total list of compounds, 59 readily available compounds were selected from the 79 compounds with the largest connectivity scores to the query signature and 20 middle compounds with connectivity scores centered on 0 (FIG. 15A) and then treated SNU761 cells at the same doses and treatment times as were used in the LINCS dataset. It was expected that the top compounds would be enriched for compounds that increased SLC16A11 expression. […] The results were aligned with the expectations (FIG. 15B). Hierarchical clustering of the SLC16 expression profiles generated by the compound treatments are shown by the heat map in FIG. 15C.
SNU761 (human hepatocellular carcinoma) and NCIH716 (human cecum adenocarcinoma) were cultured in RPMI Medium 1640 supplemented with 10% Fetal Bovine Serum (FBS), 100 μg/ml Streptomycin and 100 U/ml Penicillin. Cells were grown in a humidified CO2 incubator, at 37° C.
For the unbiased approach taken to investigate the compounds that connected to the SLC16A11 gene expression signature, compounds were obtained from compound management at the Broad Institute.
SNU761 and NCIH716 cells were plated into 96 well plates at a density of 20,000 cells per well. Hepatocytes were plated into collagen coated 96 well plates (Corning, 354408) at a density of 50,000 cells per well. After 24 hours, cells were treated with compounds at a final concentration of 10 μM or vehicle control for the appropriate amount of time.
At the time of collection, cells in 96 well plates were lysed by directly adding 50 μL of RLT buffer (Qiagen). 75 μL of AMPure XP beads, diluted by a factor of 5 in polyethylene glycol, were then added to bind nucleic acids. One wash with polyethylene glycol was then performed. DNase treatment (Qiagen) was carried out according to the manufacturer's protocol in a final volume of 50 μL. 100 μL of polyethylene glycol was added after the DNase treatment to crowd nucleic acids back onto the beads. Two washes with 80% ethanol were performed and residual ethanol was removed. RNA was then eluted in water.
RNA was DNase treated and converted into cDNA using the High-Capacity RNA-to-cDNA kit (Thermo Fisher Scientific). The following FAM-labeled TaqMan Real-Time PCR assays (Thermo Fisher Scientific) were used to quantify gene expression: SLC16A11 (Hs00601062_g1), SLC16A13 (Hs00416832_m1), SLC16A1 (Hs01560299_m1). The VIC-labeled TaqMan Real-Time assays TBP (Hs00427620_m1) or HPRT1 (Hs02800695_m1) were used for normalization. Droplets were generated and analyzed using a QX200 Droplet Generator and Reader system (BioRad). Data was extracted using QuantaSoft (BioRad) and analyzed using Microsoft Excel.

[1] = SNU761 cells, same doses and treatment times as in the LINCS dataset

| SMILES | avg_fc (SLC16A11 expression, compound treated vs DMSO treated cells) [1] | other results |
| --- | --- | --- |
| Cc1cn(-c2cc(C(=O)Nc3ccc(C)c(NC(=O)c4ccno4)c3)cc(C(F)(F)F)c2)cn1 [ALW-II-38-3] | 0.9734 |  |
| O=C1NC(=O)/C(=C/c2ccc3c(c2)OC(F)(F)O3)S1 [AS-604850] | 1.009 |  |
| O=C1NC(=O)/C(=C\c2ccc3nccnc3c2)S1 [AS-605240] | 0.7908 |  |
| O=C(NC[C@H](O)CO)c1ccncc1Nc1ccc(I)cc1F [AS-703026] | 1.68 |  |
| Cc1cc([C@@H](C)Nc2ccccc2C(=O)O)c2nc(N3CCOCC3)cc(=O)n2c1 [AZD-6482] | 2.176 |  |
| NC(=O)Nc1cc(-c2cccc(F)c2)sc1C(=O)N[C@H]1CCCNC1 [AZD-7762, 3-[(aminocarbonyl)amino]-5-(3-fluorophenyl)-N-(3S)-3-piperidinyl-2-thiophenecarboxamide, reference compound] | 4.924 | increase in SLC16A11 expression, compound treated compared to DMSO treated cells (SNU761 cells, unbiased test of 59 top and 20 middle LINCS compounds, LINCS doses and times): about 5 fold |
| OC1CCC(Nc2ncc3nc(Nc4c(F)cc(F)cc4F)n([C@@H]4CCOC4)c3n2)CC1 (some centres unmarked) [CG-930] | 1.337 |  |
| COCC(=O)NC/C=C/c1ccc2ncnc(Nc3ccc(Oc4ccc(C)nc4)c(C)c3)c2c1 [CP-724714] | 1.37 |  |
| C[C@H](NC(=O)Cc1cc(F)cc(F)c1)C(=O)N[C@H](C(=O)OC(C)(C)C)c1ccccc1 [DAPT-GSI-IX] | 1.286 |  |
| Cc1nc2c(c(=O)[nH]1)CSCC2 [DR-2313] | 1.127 |  |
| Cc1cccc(CCN2CCC(C(=O)c3ccc(NS(C)(=O)=O)cc3)CC2)n1 [E-4031] | 0.9411 |  |
| Nc1[nH]nc2nnc(-c3c(-c4ccccc4)nn4ccccc34)cc12 [FR-180204] | 0.915 |  |
| CS(=O)(=O)N1CCN(Cc2cc3nc(-c4cccc5[nH]ncc45)nc(N4CCOCC4)c3s2)CC1 [GDC-0941] | 2.079 |  |
| COc1ccc(CNC(=O)/C=C/c2ccc3[nH]cc(CCN(C)C)c3c2)cc1 [GR-46611] | 0.6609 |  |
| O=C1NC(=O)/C(=C/c2ccc3nccc(-c4ccncc4)c3c2)S1 [GSK-1059615] | 1.25 |  |
| c1ccc2c(CCNc3ccc(Nc4ccncc4)cc3)c[nH]c2c1 [JNJ-26854165] | 0.5328 |  |
| O=C(NC(COc1ccc2[nH]c(=O)[nH]c2c1)c1ccccc1)c1cccn(Cc2ccc(F)c(F)c2)c1=O (centres unmarked) [KIN001-244] | 1.084 |  |
| N#CC(=C(N)Sc1ccc(N)cc1)c1ccccc1C(F)(F)F [MEK1-2-inhibitor] | 1.414 |  |
| Clc1cncc(N2CCNCC2)n1 [MK-212] | 0.8022 |  |
| NC1(c2ccc(-c3nc4ccn5c(=O)[nH]nc5c4cc3-c3ccccc3)cc2)CCC1 [MK-2206] | 0.6972 |  |
| O=c1cc(N2CCOCC2)oc2c1ccc1ccccc12 [NU-7026] | 1.12 |  |
| Cn1c(=O)n(-c2ccc(C(C)(C)C#N)cc2)c2c3cc(-c4cnc5ccccc5c4)ccc3ncc21 [NVP-BEZ235, 2-methyl-2-[4-(3-methyl-2-oxo-8-quinolin-3-ylimidazo[4,5-c]quinolin-1-yl)phenyl]propanenitrile, reference compound] | 2.779 |  |

| SMILES | avg_fc (SLC16A11 expression, compound treated vs DMSO treated cells) [1] | other results |
| --- | --- | --- |
| COc1cccc2cc(-c3nc([C@H]4CC[C@H](C(=O)O)CC4)n4ncnc(N)c34)[nH]c12 [OSI-027, trans-4-[4-amino-5-(7 methoxy-1H-indol-2-yl)imidazo[5,1-f][1,2,4]triazin-7-yl]-cyclohexanecarboxylic acid, reference compound] | 3.384 |  |
| COc1cccc(-c2cc(=O)c3ccccc3o2)c1N [PD-98059] | 0.7929 |  |
| O=C(NOCC1CC1)c1ccc(F)c(F)c1Nc1ccc(I)cc1Cl [PD-184352] | 1.445 |  |
| O=C(NOC[C@H](O)CO)c1ccc(F)c(F)c1Nc1ccc(I)cc1F [PD-0325901] | 2.181 |  |
| Oc1cccc(-c2nc(N3CCOCC3)c3oc4ncccc4c3n2)c1 [PI-103, 3-(6-morpholin-4-yl-8-oxa-3,5,10-triazatricyclo[7.4.0.0^2,7]trideca-1 (9),2(7),3,5,10,12-hexaen-4-yl)phenol, reference compound] | 2.453 |  |
| Nc1ccc(-c2cccc3c(=O)cc(N4CCOCC4)oc23)cc1 [PI-828] | 1.336 |  |
| COc1ccc2c(c1OC)N=C(NC(=O)c1cccnc1)N1CCN=C21 [PIK-90] | 1.487 |  |
| Cn1cc(C(=O)C(=O)NC2CN3CCC2CC3)c2ccccc21 (centres unmarked) [RS-56812] | 0.9914 |  |
| Cc1[nH]c(/C=C2\C(=O)Nc3ccc(S(=O)(=O)N(C)c4cccc(Cl)c4)cc32)c(C)c1C(=O)N1CCN(C)CC1 [SU-11274] | 1.059 |  |
| COC(=O)c1c(-c2cc(OC)c(OC)c(OC)c2)c2ccnc(OCc3ncccn3)c2c(=O)n1Cc1ccnc(C)c1 [T-0156] | 0.8378 |  |
| Nc1nc(N)c2nc(-c3cccc(O)c3)c(-c3cccc(O)c3)nc2n1 [TG100-115] | 1.086 |  |
| N#CC(=C(/N)Sc1ccccc1N)/C(C#N)=C(\N)Sc1ccccc1N [U0126] |  | avg_fc (SLC16A11 expression, compound treated vs DMSO treated cells): 1.885 |
| NC(=O)c1ccc(N(C(N)=O)c2c(F)cccc2F)nc1-c1ccc(F)cc1F [VX-702] | 0.8683 |  |
| COC(=O)Nc1ccc(-c2nc(N3CCOCC3)c3cnn(C4CCN(C(=O)OC)CC4)c3n2)cc1 [WYE-354, methyl 4-[6-[4-(methoxycarbonylamino)phenyl]-4-morpholin-4-ylpyrazolo[3,4-d]pyrimidin-1-yl]piperidine-1-carboxylate, reference compound] | 3.517 |  |
| CNC(=O)Nc1ccc(-c2nc(N3CC4CCC(C3)O4)c3cnn(C4CCC5(CC4)OCCO5)c3n2)cc1 [WYE-125132] | 3.336 |  |
| COCCCOc1cc(C[C@@H](C[C@H](N)[C@@H](O)C[C@H](C(=O)NCC(C)(C)C(N)=O)C(C)C)C(C)C)ccc1OC [aliskiren] | 0.8853 |  |
| NS(=O)(=O)c1cc2c(cc1C(F)(F)F)NC(Cc1ccccc1)NS2(=O)=O (centres unmarked) [bendroflumethiazide] | 0.7917 |  |
| CC(C)COCC(CN(Cc1ccccc1)c1ccccc1)N1CCCC1 (centres unmarked) [bepridil] | 0.8545 |  |
| CCCC[C@@H](C=O)NC(=O)[C@H](CC(C)C)NC(=O)OCc1ccccc1 [calpeptin] | 1.034 |  |
| CC(C)OC(=O)c1cc2c(OCC(O)CNC(C)(C)C)cccc2[nH]1 (centres unmarked) [carpindolol] | 0.8548 |  |
| CC1(C)C[C@@H]1C(=O)N/C(=C\CCCCSC[C@H](N)C(=O)O)C(=O)O [cilastatin] | 0.9371 |  |
